What was measured:
Assay type in all cases: binding
[1] = biological target: T1, KRAS G12D (Homo sapiens, UniProt P01116, G12D); test: HTRF assay of K-Ras G12D interaction with SOS1 (PPI-HTRF); settings: HTRF, 5 nM KRAS G12D; read-out: PPI-HTRF-5 nM KRAS G12D
T1 construct: made in house; host or cells: E. coli, e.g. BL21 (DE3)
Outline: (§1)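 GST-KRas + antiGST-Eu(K); His-hSOS1 + anti-6His-XL665. Buffer ~5 mM HEPES pH 7.4/150 mM NaCl/1 mM DTT/0.05% BSA/0.0025% Igepal. Cpd in DMSO, duplicates 10–0.01 μM; ≥10 min incubation, HTRF 620/665 nm, IC50 from ratio.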

[2] = biological target: T2, KRAS WT (Homo sapiens, UniProt P01116); test: HTRF assay of wildtype K-Ras interaction with SOS1 (PPI-HTRF); settings: HTRF, 5 nM KRAS WT; read-out: PPI-HTRF-5 nM KRAS WT
T2 construct: made in house; host or cells: E. coli, e.g. BL21 (DE3)
Outline: as §1

[3] = biological target: T3, KRAS G12S (Homo sapiens, UniProt P01116, G12S); test: HTRF assay of K-Ras G12S interaction with SOS1 (PPI-HTRF); settings: 5 nM KRAS G12S, read-out: PPI-HTRF-5 nM KRAS G12S
T3 construct: made in house; host or cells: E. coli, e.g. BL21 (DE3)
Outline: as §1

T2 sequence (P01116 1-188 isoform P01116-2): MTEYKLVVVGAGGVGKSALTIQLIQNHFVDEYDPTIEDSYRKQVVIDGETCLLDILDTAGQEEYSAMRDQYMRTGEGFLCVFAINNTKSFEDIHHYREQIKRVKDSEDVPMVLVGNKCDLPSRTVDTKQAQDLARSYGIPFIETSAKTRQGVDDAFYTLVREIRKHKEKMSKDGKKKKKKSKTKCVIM
T1 sequence (P01116 1-188 isoform P01116-2 G12D): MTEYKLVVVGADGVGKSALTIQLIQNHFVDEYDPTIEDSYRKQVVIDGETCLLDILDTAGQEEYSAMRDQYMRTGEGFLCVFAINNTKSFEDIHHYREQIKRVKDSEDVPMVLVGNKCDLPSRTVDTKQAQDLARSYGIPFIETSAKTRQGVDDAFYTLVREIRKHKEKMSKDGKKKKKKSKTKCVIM
T3 sequence (P01116 1-188 isoform P01116-2 G12S): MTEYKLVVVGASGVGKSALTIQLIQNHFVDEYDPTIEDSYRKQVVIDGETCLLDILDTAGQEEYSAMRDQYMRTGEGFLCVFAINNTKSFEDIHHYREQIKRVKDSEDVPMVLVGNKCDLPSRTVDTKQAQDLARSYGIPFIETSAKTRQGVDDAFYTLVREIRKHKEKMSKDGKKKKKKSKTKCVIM

| Compound | IC50 [1] [µM] | IC50 [2] [µM] | IC50 [3] [µM] |
| --- | --- | --- | --- |
| N#Cc1c(N)sc2c(F)ccc(-c3c(Cl)cc4c(N5CC6(CCN6C(=O)n6cncn6)C5)nc(OC[C@@]56CCCN5C[C@H](F)C6)nc4c3F)c12 [Compound 238, 4-(4-(1-(1H-1,2,4-triazole-1-carbonyl)-1,6-diazaspiro[3.3]heptan-6-yl)-6-chloro-8-fluoro-2-(((2R,7aS)-2-fluorotetrahydro-1H-pyrrolizin-7a(5H)-yl)methoxy)quinazolin-7-yl)-2-amino-7-fluorobenzo[b]thiophene-3-carbonitrile] | < 5 | < 5 | < 5 |
| Cc1nc(Cl)n(C(=O)N2CCC23CCN(c2nc(OC[C@@]45CCCN4C[C@H](F)C5)nc4c(F)c(-c5ccc(F)c6sc(N)c(C#N)c56)c(Cl)cc24)C3)n1 (stereo partly drawn) [Compound 311, 2-amino-4-(6-chloro-4-(1-(5-chloro-3-methyl-1H-1,2,4-triazole-1-carbonyl)-1,6-diazaspiro[3.4]octan-6-yl)-8-fluoro-2-(((2R,7aS)-2-fluorotetrahydro-1H-pyrrolizin-7a(5H)-yl)methoxy)quinazolin-7-yl)-7-fluorobenzo[b]thiophene-3-carbonitrile] | < 5 | < 5 | < 5 |
| N#Cc1c(N)sc2c(F)ccc(-c3c(Cl)cc4c(N5CCCCC6(CCCN6C(=O)n6cncn6)C5)nc(OC[C@@]56CCCN5C[C@H](F)C6)nc4c3F)c12 (mixture of isomers) [Compound 349, 4-(4-(1-(1H-1,2,4-triazole-1-carbonyl)-1,7-diazaspiro[4.6]undecan-7-yl)-6-chloro-8-fluoro-2-(((2R,7aS)-2-fluorotetrahydro-1H-pyrrolizin-7a(5H)-yl)methoxy)quinazolin-7-yl)-2-amino-7-fluorobenzo[b]thiophene-3-carbonitrile] | < 5 | < 5 | < 5 |
| C[C@H](Oc1nc(N2CCCC3(CCN3C(=O)[C@@H]3C[C@H]3C#N)C2)c2cc(Cl)c(-c3ccc(F)c4sc(N)c(C#N)c34)c(F)c2n1)[C@@H]1CCCN1C (stereo partly drawn) [Compound 235, 2-amino-4-(6-chloro-4-(1-((1R,2R)-2-cyanocyclopropane-1-carbonyl)-1,6-diazaspiro[3.5]nonan-6-yl)-8-fluoro-2-((S)-1-((S)-1-methylpyrrolidin-2-yl)ethoxy)quinazolin-7-yl)-7-fluorobenzo[b]thiophene-3-carbonitrile] | < 5 | < 5 | < 5 |

Next, values leading:

| IC50 [1] [µM] | IC50 [2] [µM] | IC50 [3] [µM] | Compound |
| --- | --- | --- | --- |
| > 5 | > 5 | > 5 | CN1CCC[C@H]1COc1nc2c(c(N3CCC4(CCN4C(=O)n4cncn4)C3)n1)CCN(c1cccc3cccc(Cl)c13)C2 (stereo partly drawn) [Compound 245, (6-(7-(8-chloronaphthalen-1-yl)-2-(((S)-1-methylpyrrolidin-2-yl)methoxy)-5,6,7,8-tetrahydropyrido[3,4-d]pyrimidin-4-yl)-1,6-diazaspiro[3.4]octan-1-yl)(1H-1,2,4-triazol-1-yl)methanone] |
| < 5 | < 5 | < 5 | N#Cc1c(N)sc2c(F)ccc(-c3c(Cl)cc4c(N5CC[C@]6(CCN6C(=O)n6cncn6)C5)nc(OC[C@@]56CCCN5C[C@H](F)C6)nc4c3F)c12 [Compound 305, 4-(4-((S)-1-(1H-1,2,4-triazole-1-carbonyl)-1,6-diazaspiro[3.4]octan-6-yl)-6-chloro-8-fluoro-2-(((2R,7aS)-2-fluorotetrahydro-1H-pyrrolizin-7a(5H)-yl)methoxy)quinazolin-7-yl)-2-amino-7-fluorobenzo[b]thiophene-3-carbonitrile] |
